# What was measured:
# [1] = tested on: Trichophyton mentagrophytes; assay: In vitro antifungal activity test (Test Example 1), Sabouraud's agar, Trichophyton mentagrophytes; format: cell-based; details: 168 h; (a) Trichophyton mentagrophytes; 27° C., 7 days; read-out: minimal growth-inhibitory concentration (MIC)
# Experimental: (§1) The antifungal activity of the compound of the present invention against Trichophyton metagrophytes, Trichophyton interdigitale and Trichophyton rubrum was tested employing Sabouraud's agar medium.
# (§2) Each test compound shown in Table 4 was dissolved into 1 ml of ethanol and thereto distilled water was added to adjust to the concentration of 1000 μg/ml. In this way twofold dilution series was made, 1 ml of which was respectively taken into shale and therewith 9 ml of Sabouraud's agar medium was mixed to form plate medium.
# (§3) In this plate medium was implanted 0.0005 ml of each test fungus at 2×10^6 spores/ml by the microplanter MIP-2 (Sakuma Seisakusho Co., Ltd.) and was incubated at 27° C. for 7 days. The results were shown in Table 2 as the minimal growth-inhibitory concentration (MIC, μg/ml).
# Trichophyton rubrum = assay: In vitro antifungal activity test (Test Example 1), Sabouraud's agar, Trichophyton rubrum; format: cell-based; details: 168 h; (c) Trichophyton rubrum; 27° C., 7 days; read-out: minimal growth-inhibitory concentration (MIC)
# Experimental: as §1, §2, §3
# [2] = tested on: Trichophyton interdigitale; assay: In vitro antifungal activity test (Test Example 1), Sabouraud's agar, Trichophyton interdigitale; format: cell-based; details: 168 h; (b) Trichophyton interdigitale; 27° C., 7 days; read-out: minimal growth-inhibitory concentration (MIC)
# Experimental: as §1, §2, §3
# [3] = tested on: Trichophyton mentagrophytes; assay: Test on treatment of trichophytosis in guinea pig (Test Example 2); format: in vivo; details: 0.2 ml of 0.1 % solution in ethanol, once in a day for ten days since 48 hours after infection; guinea pig back skin
# Experimental: In the back of male Hartley guinea pig weighing 600° to 700 g, four portions were unhaired in an area of 4 cm^2 respectively and rubbed lightly with sandpaper, to which the second generation of Trichophyton mentagrophytes incubated inversely from another guinea pig was infected at 1×10^5 spores per portion. The test compounds obtained in Example 1 was dissolved in ethanol and 0.2 ml of the resultant 0.1 % solution was applied to the infected portions once in a day for ten days since 48 hours after the infection. Test animal was killed 2 days after the last treatment and 10 tissue specimens from each infected portions were placed on Sabouraud's plates containing cycloheximide and kanamycin, which were incubated at 27° C. for 7 days.
# inhibitory ratio ={1-(number of tissue specimens found fungi/number of tissue specimens incubated inversely)}×100
# [4] = Side effect test on guinea pig skin (Test Example 3); format: in vivo, male Hartley guinea pig; details: 0.2 ml/day of 0.5 % solution in ethanol, once in a day for ten days; lightly rubbed guinea pig skin
# Experimental: Two portions in the back of male Hartley guinea pig weighing 600° to 700 g were unhaired in an area of 4 cm^2 respectively in order to examine side effects of the test compounds. The next day unhaired portions were lightly rubbed with sandpaper. The test compounds obtained in Example 1 was dissolved in ethanol and 0.2 ml/day of the resultant 0.5 % solution was applied to one of the unhaired portions, while 0.2 ml/day of only ethanol was applied to the other portions, once in a day for ten days respectively.
SMILES,MIC [1] [µg/mL],MIC (Trichophyton rubrum) [µg/mL],MIC [2] [µg/mL],inhibitory ratio [3] [%],side effects [4]
CCCCc1ccc(CN(C)Cc2cccc3ccccc23)cc1 [Example 24],0.1,0.1,0.2,–,–
Cc1cc(C)cc(CN(C)Cc2cccc3ccccc23)c1 [Example 26],12.5,6.25,12.5,–,–
"CCC(C)(C)c1ccc(CN(C)Cc2cccc3ccccc23)cc1 [Example 12, N-Methyl-N-4-tert-pentylbenzyl-1-naphthylmethylamine]",0.0125,0.006,0.0125,–,–
CN(Cc1cccc(C(F)(F)F)c1)Cc1cccc2ccccc12 [Example 14],12.5,6.25,6.25,–,–
Cc1ccc2ccccc2c1CN(C)Cc1ccc(C(C)(C)C)cc1 [Example 2],0.2,0.1,0.1,–,–
CCCN(Cc1ccc(C(C)(C)C)cc1)Cc1cccc2ccccc12 [Example 19],0.78,0.2,0.2,–,–
CN(Cc1ccc(C(C)(C)C)s1)Cc1cccc2ccccc12 [Example 69],0.05,0.025,–,–,–
CCN(Cc1ccc(C(C)(C)C)cc1)Cc1csc2ccccc12 [Example 30],0.78,0.78,–,–,–
CCN(Cc1ccc(C(C)(C)C)cc1)Cc1cccc2ccccc12 [Example 18],0.1,0.006,0.05,–,–
"CN(Cc1ccc(C(C)(C)C)cc1)Cc1csc2ccccc12 [Example 29, N-4-tert-Butylbenzyl-N-methyl-3-benzo[b]-thienylmethylamine]",0.05,0.05,–,–,–
CN(Cc1ccc2c(c1)CCCC2)Cc1cccc2ccccc12 [Example 54],0.1,0.1,–,–,–
Cc1cccc2c(CN(C)Cc3ccc(C(C)(C)C)cc3)csc12 [Example 33],0.2,0.1,–,–,–
"CN(Cc1ccc(C(C)(C)C)cc1)Cc1c(O)ccc2ccccc12.Cl [Example 28, N-(4-tert-butylbenzyl)-N-methyl-2-hydroxy-1-naphthylmethylamine hydrochloride]",25,6.25,12.5,–,–
CN(Cc1ccc(C(C)(C)C)cc1)Cc1ccc(Br)c2ccccc12 [Example 6],0.2,0.05,0.2,–,–
CN(Cc1ccc(C2CCCCC2)cc1)Cc1cccc2ccccc12 [Example 16],3.13,1.56,1.56,–,–
CN(Cc1ccc(C(C)(C)C)cc1)Cc1cccc2ccsc12 [Example 35],0.78,0.78,–,–,–
CN(Cc1ccc(C(C)(C)C)cc1)Cc1ccc(F)c2ccccc12 [Example 4],0.025,0.006,0.006,–,–
"CC(c1cccc2ccccc12)N(C)Cc1ccc(C(C)(C)C)cc1 (stereo not shown) [Example 9, N-4-tert-Butylbenzyl-N-methyl-1-(1-naphthyl)ethylamine]",0.025,0.003,0.025,–,–
CN(Cc1ccc(C(C)(C)C)cc1)Cc1cccc2c([N+](=O)[O-])cccc12 [Example 8],0.1,0.025,0.05,–,–
CCCCN(Cc1ccc(C(C)(C)C)cc1)Cc1cccc2ccccc12 [Example 20],6.25,3.13,6.25,–,–
CN(Cc1ccc(C(C)(C)C)cc1)Cc1cccc2c1CCCC2 [Example 39],0.39,0.39,–,–,–
CN(Cc1ccc(C(C)(C)C)cc1)Cc1ccc(Cl)c2ccccc12 [Example 5],0.1,0.025,0.1,–,–
CCN(Cc1ccc2c(c1)CCCC2)Cc1cccc2ccccc12 [Example 56],0.2,0.2,–,–,–
CN(Cc1ccc(C(C)(C)C)cc1)Cc1cccc2sccc12 [Example 34],0.025,0.025,–,–,–

# Second part, led by results:
MIC [1] [µg/mL],MIC (Trichophyton rubrum) [µg/mL],MIC [2] [µg/mL],SMILES,inhibitory ratio [3] [%],side effects [4]
0.39,0.39,–,Cc1ccc(CN(C)Cc2ccc3ccccc3c2)c2ccccc12 [Example 49],–,–
0.39,0.1,–,CCN(Cc1ccc2ccccc2c1)Cc1cccc2ccccc12 [Example 63],–,–
0.39,0.2,–,CC(c1cccc2ccccc12)N(C)Cc1ccc2ccccc2c1 (stereo not shown) [Example 51],–,–
1.56,1.56,1.56,CN(Cc1ccc(Cl)c(Cl)c1)Cc1cccc2ccccc12 [Example 17],–,–
0.78,0.39,0.78,Cc1ccc(CN(C)Cc2cccc3ccccc23)cc1C [Example 25],–,–
0.1,0.1,0.2,CCc1ccc(CN(C)Cc2cccc3ccccc23)cc1 [Example 23],–,–
0.2,0.2,–,CN(Cc1ccc2ccccc2c1)Cc1ccc(F)c2ccccc12 [Example 43],–,–
1.56,0.39,1.56,CN(Cc1ccc(C(C)(C)C)cc1)Cc1ccc2ccccc2c1 [Example 10],–,–
0.025,0.0125,0.1,"CC(C)c1ccc(CN(C)Cc2cccc3ccccc23)cc1 [Example 22, N-4-Isopropylbenzyl-N-methyl-1-naphthylmethylamine]",–,–
25,12.5,25,Cc1cccc(CN(C)Cc2cccc3ccccc23)c1 [Example 13],–,–
0.78,0.39,3.13,Cc1ccc(CN(C)Cc2cccc3ccccc23)cc1 [Example 15],–,–
0.1,0.025,0.05,Cc1ccc(CN(C)Cc2ccc(C(C)(C)C)cc2)c2ccccc12 [Example 3],–,–
0.0125,0.003,0.006,"CN(Cc1ccc(C(C)(C)C)cc1)Cc1cccc2ccccc12.Cl [Example 1, N-(4-tert-butylbenzyl)-N-methyl-1-naphthylmethylamine hydrochloride]",82,"side effects such as, for instance, erythema and papula were not observed"
0.78,0.39,0.39,CN(Cc1ccc(C(C)(C)C)cc1)Cc1ccc(I)c2ccccc12 [Example 7],–,–
